Publication PMC11855207, “Synthesis and Evaluation of Aromatic A-Ring 23-Oxavitamin D3 Analogues as Hedgehog Pathway Inhibitors” (International Journal of Molecular Sciences, 2025)

Test system: Hh signaling pathway (Ptch mRNA) in C3H10T1/2 cells
Experiment: Ptch mRNA down-regulation (qPCR) in C3H10T1/2 cells
Format: cell-based
Details: Mus musculus, C3H 10T1/2; C3H10T1/2 cells; mean ± SEM; read-out: Ptch IC50
Procedure: (§4) RNA isolation in C3H10T1/2 cells was performed in 24-well plates (50,000 cells plated; TRIZOL Reagent); in ASZ001, cells were done in 35 mm dishes (300,000 cells plated; TRIZOL Reagent). cDNA synthesis was performed utilizing the SweScript All-in-One RT SuperMix Kit (Servicebio, Wuhan, China) per the manufacturer’s instructions on a BioRad S1000 Thermal Cycler (Hercules, CA, USA). qPCR (Hh signaling pathway and VDR) analysis of target genes was performed on Step OnePlus (ABI) using the Taqman Gene Expression Assays [18, 29]: mouse ActB (Mm00607939_s1), mouse GLI1 (Mm00494645_ml), mouse PTCH1(Mm00436026_m1), and mouse CYP24A1 (Mm00487244_ml). Relative gene expression levels were computed via the ΔΔCt method. ActinB mRNA expression levels of all samples were normalized to DMSO control ActinB mRNA levels (vehicle; set at 1.00). […] The mRNA expression levels from drug-treated samples were compared to OHCs levels (Gli1, PTCH) and DMSO control (Cyp24A1).

Row | Structure (SMILES) | IC50
1 | C[C@H](COCC(C)(C)O)[C@H]1CC[C@H]2[C@@H](OC(=O)c3cccc(O)c3)CCC[C@]12C [Compound 4h] | 5.7 ± 0.5 µM
2 | CC(C)COC[C@@H](C)[C@H]1CC[C@H]2[C@@H](OC(=O)c3ccc(O)cc3)CCC[C@]12C [Compound 3k] | 10.3 ± 1.1 µM
3 | CC(C)COC[C@@H](C)[C@H]1CC[C@H]2[C@@H](OC(=O)c3cc(N)cc(N)c3)CCC[C@]12C [Compound 3h] | 7.8 ± 0.6 µM

Test system: Hh signaling pathway (Gli1 mRNA) in C3H10T1/2 cells
Experiment: Gli1 mRNA down-regulation (qPCR) in OHC-stimulated C3H10T1/2 cells
Format: cell-based, mouse
Details: Mus musculus, C3H 10T1/2, 5 μM with OHCs 5 μM, 24 h, relative Gli1 mRNA levels compared to OHCs (set to 100%)
Procedure: (§1) The VD3 analogues were initially assessed for their ability to inhibit the Hh signaling pathway by evaluating the effects on endogenous Gli1 mRNA levels at a single concentration (5 μM) co-administration of oxysterols (OHCs; 20(S)-hydroxycholesterol, 22(S)-hydroxycholesterol at 5 μM each) in C3H10T1/2 cells, an Hh-dependent mouse embryonic fibroblast (MEF) cell line. […] VD3 derivatives may retain some VDR agonistic activity, thereby compromising the selectivity of these compounds as Hh inhibitors. The selectivity profile of the analogues for Hh inhibition, compared to typical VDR activation, was assessed by measuring the ability to up-regulate Cyp24a1 mRNA levels in the same cellular system and by evaluating their binding to VDR using a fluorescence polarization-based competition assay (Table 1).
(§2) Mouse embryonic fibroblast cell line (C3H10T1/2, wild-type, VDR^−/−, SuFu^−/−), mouse keratinocyte cell line (ASZ001), and human embryonic kidney cell line (HEK293T) were purchased from China Center for Type Culture Collection (CCTCC; Wuhan, Hubei, China) and cultured under standard protocols. […] Therefore, they can be used to assess the inhibitory strength of the Hh signaling and the selectivity of the VDR signaling. VDR^−/− and SuFu^−/− C3H10T1/2 cells were used to study compounds selectivity for Hh and VDR signaling. If compounds regulate Hh signaling independently of VDR, their ability to down-regulate Gli1 mRNA expression should be abolished in SuFu^−/− C3H10T1/2 cells. […] The loss of Ptch in ASZ001 cells […], so down-regulating Gli1 reflects direct Smo inhibition by the compound. Comparing results from ASZ001 and C3H10T1/2 cells highlights the compound’s inhibition of the Hh signaling pathway.
(§3) RNA isolation in C3H10T1/2 cells was performed in 24-well plates (50,000 cells plated; TRIZOL Reagent); in ASZ001, cells were done in 35 mm dishes (300,000 cells plated; TRIZOL Reagent). cDNA synthesis was performed utilizing the SweScript All-in-One RT SuperMix Kit (Servicebio, Wuhan, China) per the manufacturer’s instructions on a BioRad S1000 Thermal Cycler (Hercules, CA, USA). qPCR (Hh signaling pathway and VDR) analysis of target genes was performed on Step OnePlus (ABI) using the Taqman Gene Expression Assays: mouse ActB (Mm00607939_s1), mouse GLI1 (Mm00494645_ml), mouse PTCH1(Mm00436026_m1), and mouse CYP24A1 (Mm00487244_ml). Relative gene expression levels were computed via the ΔΔCt method. ActinB mRNA expression levels of all samples were normalized to DMSO control ActinB mRNA levels (vehicle; set at 1.00). […] The mRNA expression levels from drug-treated samples were compared to OHCs levels (Gli1, PTCH) and DMSO control (Cyp24A1).

Row | Structure (SMILES) | mrna remaining at 5 µM
4 | C[C@H](COCC(C)(C)O)[C@H]1CC[C@H]2[C@@H](OC(=O)c3cccc(O)c3)CCC[C@]12C [Compound 4h] | 3.8 ± 0.4%
5 | CC(C)COC[C@@H](C)[C@H]1CC[C@H]2[C@@H](OC(=O)c3ccc(O)cc3)CCC[C@]12C [Compound 3k] | 7.3 ± 1.9%
6 | CC(C)COC[C@@H](C)[C@H]1CC[C@H]2[C@@H](OC(=O)c3cc(N)cc(N)c3)CCC[C@]12C [Compound 3h] | 5.6 ± 0.9%

Same assay, conditions: Mus musculus, C3H 10T1/2, mean ± SEM

Row | Structure (SMILES) | IC50
7 | C[C@H](COCC(C)(C)O)[C@H]1CC[C@H]2[C@@H](OC(=O)c3cccc(O)c3)CCC[C@]12C [Compound 4h] | 2.8 ± 0.2 µM
8 | CC(C)COC[C@@H](C)[C@H]1CC[C@H]2[C@@H](OC(=O)c3ccc(O)cc3)CCC[C@]12C [Compound 3k] | 3.8 ± 0.4 µM
9 | CC(C)COC[C@@H](C)[C@H]1CC[C@H]2[C@@H](OC(=O)c3cc(N)cc(N)c3)CCC[C@]12C [Compound 3h] | 3.2 ± 0.3 µM

Test system: ASZ001 cells
Experiment: Anti-proliferation (MTS) in ASZ001 cells
Format: cell-based
Details: Mus musculus, 48 h incubation, mean ± SEM

Row | Structure (SMILES) | GI50
10 | C[C@H](COCC(C)(C)O)[C@H]1CC[C@H]2[C@@H](OC(=O)c3cccc(O)c3)CCC[C@]12C [Compound 4h] | > 20 µM
11 | CC(C)COC[C@@H](C)[C@H]1CC[C@H]2[C@@H](OC(=O)c3ccc(O)cc3)CCC[C@]12C [Compound 3k] | > 20 µM
12 | CC(C)COC[C@@H](C)[C@H]1CC[C@H]2[C@@H](OC(=O)c3cc(N)cc(N)c3)CCC[C@]12C [Compound 3h] | > 20 µM

Test system: primary Ptch-CKO MB cells
Experiment: Anti-proliferation (MTS) in primary Ptch-CKO MB cells
Format: cell-based
Details: Mus musculus, 48 h incubation, mean ± SEM
Procedure: Ptch-CKO MB cells, derived from a conditional Patched knockout mouse, lack Ptch-like ASZ001 cells. Consequently, the inhibitory effect of the compound on Ptch-CKO MB cells directly reflects its suppression of the canonical Hh signaling pathway. Cell viability was assessed by MTS proliferation assay kit (Promega, Madison, WI, USA) according to the manufacturer’s protocol. Culture conditions and experimental protocols to determine GI50 values in the primary murine Ptch-CKO MB cells were as previously described.

Row | Structure (SMILES) | GI50
13 | C[C@H](COCC(C)(C)O)[C@H]1CC[C@H]2[C@@H](OC(=O)c3cccc(O)c3)CCC[C@]12C [Compound 4h] | > 10 µM
14 | CC(C)COC[C@@H](C)[C@H]1CC[C@H]2[C@@H](OC(=O)c3ccc(O)cc3)CCC[C@]12C [Compound 3k] | > 10 µM
15 | CC(C)COC[C@@H](C)[C@H]1CC[C@H]2[C@@H](OC(=O)c3cc(N)cc(N)c3)CCC[C@]12C [Compound 3h] | > 10 µM

Test system: Hh signaling pathway (Gli1 mRNA) in ASZ001 cells
Experiment: Gli1 mRNA down-regulation (qPCR) in ASZ001 cells
Format: cell-based
Details: Mus musculus; ASZ001 cells; mean ± SEM; read-out: Gli1 IC50
Procedure: Mouse embryonic fibroblast cell line (C3H10T1/2, wild-type, VDR^−/−, SuFu^−/−), mouse keratinocyte cell line (ASZ001), and human embryonic kidney cell line (HEK293T) were purchased from China Center for Type Culture Collection (CCTCC; Wuhan, Hubei, China) and cultured under standard protocols [16]. […] The loss of Ptch in ASZ001 cells prevents Smo inhibition, so down-regulating Gli1 reflects direct Smo inhibition by the compound.
as §4

Row | Structure (SMILES) | IC50
16 | C[C@H](COCC(C)(C)O)[C@H]1CC[C@H]2[C@@H](OC(=O)c3cccc(O)c3)CCC[C@]12C [Compound 4h] | 4.1 ± 0.5 µM
17 | CC(C)COC[C@@H](C)[C@H]1CC[C@H]2[C@@H](OC(=O)c3ccc(O)cc3)CCC[C@]12C [Compound 3k] | 6.2 ± 1.1 µM
18 | CC(C)COC[C@@H](C)[C@H]1CC[C@H]2[C@@H](OC(=O)c3cc(N)cc(N)c3)CCC[C@]12C [Compound 3h] | 4.7 ± 0.4 µM

Biological target: T1, recombinant VDR (Homo sapiens, UniProt P11473)
T1 construct: purchased Thermo Fisher Scientific
T1 sequence (P11473 1-427): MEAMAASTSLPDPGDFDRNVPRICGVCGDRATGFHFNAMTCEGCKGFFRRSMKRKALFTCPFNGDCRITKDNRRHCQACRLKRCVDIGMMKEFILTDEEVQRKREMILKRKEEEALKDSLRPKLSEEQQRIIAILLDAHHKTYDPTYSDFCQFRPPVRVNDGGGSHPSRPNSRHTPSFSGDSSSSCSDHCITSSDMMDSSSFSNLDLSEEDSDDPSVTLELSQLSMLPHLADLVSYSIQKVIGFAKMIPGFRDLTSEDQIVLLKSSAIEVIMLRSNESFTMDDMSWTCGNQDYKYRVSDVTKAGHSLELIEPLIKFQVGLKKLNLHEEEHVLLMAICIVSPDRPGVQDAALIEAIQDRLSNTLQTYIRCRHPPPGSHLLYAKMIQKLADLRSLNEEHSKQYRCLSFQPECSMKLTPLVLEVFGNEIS
Experiment: VDR binding, fluorescence polarization-based competition assay (PolarScreen VDR Competitor Assay Red)
Details: compounds evaluated at 100 μM
Procedure: as §1
VDR binding assay was performed using a PolarScreen VDR Competitor Assay Red kit (Thermo Fisher Scientific, Carlsbad, CA, USA) per the manufacturer’s instructions. Compounds were evaluated at 100 μM in 2.5% final DMSO in triplicate. Calcitriol is utilized as a positive control for VDR binding.

Row | Structure (SMILES) | VDR Binding
19 | C[C@H](COCC(C)(C)O)[C@H]1CC[C@H]2[C@@H](OC(=O)c3cccc(O)c3)CCC[C@]12C [Compound 4h] | >100 µM
20 | CC(C)COC[C@@H](C)[C@H]1CC[C@H]2[C@@H](OC(=O)c3ccc(O)cc3)CCC[C@]12C [Compound 3k] | >100 µM
21 | CC(C)COC[C@@H](C)[C@H]1CC[C@H]2[C@@H](OC(=O)c3cc(N)cc(N)c3)CCC[C@]12C [Compound 3h] | >100 µM

Test system: VDR signaling (Cyp24A1 mRNA) in ASZ001 cells
Experiment: Cyp24A1 mRNA expression (qPCR) in ASZ001 cells
Format: cell-based
Details: Mus musculus; ASZ001 cells; 5 μM, 24 h; DMSO set to 1.0; read-out: Cyp24A1 mRNA levels relative to DMSO
Procedure: as §4

Row | Structure (SMILES) | fold induction at 5 µM
22 | C[C@H](COCC(C)(C)O)[C@H]1CC[C@H]2[C@@H](OC(=O)c3cccc(O)c3)CCC[C@]12C [Compound 4h] | 60.3 ± 6.4
23 | CC(C)COC[C@@H](C)[C@H]1CC[C@H]2[C@@H](OC(=O)c3ccc(O)cc3)CCC[C@]12C [Compound 3k] | 5.8 ± 0.3
24 | CC(C)COC[C@@H](C)[C@H]1CC[C@H]2[C@@H](OC(=O)c3cc(N)cc(N)c3)CCC[C@]12C [Compound 3h] | 5.1 ± 0.3

Test system: VDR signaling (Cyp24A1 mRNA) in C3H10T1/2 cells
Experiment: Cyp24A1 mRNA up-regulation (qPCR) in C3H10T1/2 cells
Format: cell-based, mouse
Details: Mus musculus, C3H 10T1/2, 5 μM with OHCs 5 μM, 24 h, relative to DMSO (set to 1.0)
Procedure: as §1, §2, §3

Row | Structure (SMILES) | fold induction at 5 µM
25 | C[C@H](COCC(C)(C)O)[C@H]1CC[C@H]2[C@@H](OC(=O)c3cccc(O)c3)CCC[C@]12C [Compound 4h] | 87.4 ± 13.7
26 | CC(C)COC[C@@H](C)[C@H]1CC[C@H]2[C@@H](OC(=O)c3ccc(O)cc3)CCC[C@]12C [Compound 3k] | 32.1 ± 3.2
27 | CC(C)COC[C@@H](C)[C@H]1CC[C@H]2[C@@H](OC(=O)c3cc(N)cc(N)c3)CCC[C@]12C [Compound 3h] | 6.7 ± 0.8
